Results published in patent US4376780A, “Novel phenethylamine derivatives and bronchdilator containing the same” (Eisai Co., Ltd., priority 1976, dated 1983).
Entries after “also recorded” stand apart in the source; their conditions may differ. Where a name gives a salt, the structure may show the parent alone. Read-outs that look alike come from different tables or passages of the source.

Assays:
[1] = test system: asthmatous fit caused by the histamine spray; experiment: Protecting effect against the dyspnea (asthmatous fit) caused by histamine spray, guinea pigs, oral; type: in vivo, guinea pigs of Hartley strain; details: for ED50: Cavia porcellus, read-out: ED 50, protecting effect on the asthmatous fit caused by the histamine spray; for protecting effect relative to the two controls, salbutamol and isoproterenol / durability action of the protecting effect / Ratio to isoproterenol (protecting effect): guinea pigs; for durability action of the protecting effect: in words; for Ratio to isoproterenol (protecting effect): isoproterenol = 100
Method: Protecting Effect Against The Dyspnea Caused By The Histamine
Male guinea pigs of Hartley strain were used. Aqueous solutions of the compounds to be examined were prepared in various concentrations, and administered orally to the guinea pigs, in a dose of 10 ml/Kg, respectively. After the oral administration, the guinea pigs were taken in a dome. Histamine solution in a concentration of 0.1% was sprayed through a nebulizer at a blow rate of 3500 ml/min. Two symptoms of hypoxia and fit of caughing were used as indices, and a probable appearing time of said two symptoms was watched and observed for 20 minutes from the start of the spraying.
The protecting effect was judged to be effective with the appearing time more than the double of the mean appearing time in 33 examples of the groups wherein physiological saline water was administered.

[2] = test system: air way resistance increased by histamine; experiment: Inhibitory effect on the increasing reaction of the air-way resistance of histamine (Konzett-Rossler), anesthetized dogs; type: in vivo
Method: Inhibitory Effect On The Increasing Reaction Of The Air-Way Resistance Of Histamine
(§1) Normally healthy dogs (body weights were 10-15 Kg) were used as subject animals, and anesthetized with sodium pentobarbital urethane. The compounds to be examined were injected into the femoral vein of the dog. The inhibitory effect on the increasing reaction of the histamine (10 μg/Kg were administered) to the air way resistance was determined by Konzett-Rossler method.

[3] = test system: heart beat numbers of the guinea pig; experiment: Effect on the heart beat numbers, conscious guinea pigs; type: in vivo; details: for increasing action to the heart beat numbers of the guinea pig: calculation from the product of the intensity action with the durability
Method: Effect On The Heart Beat Numbers
(1) Conscious guinea pigs
The guinea pigs were used, in which electrodes of stainless steel were pierced and put in both forelegs of the respective guinea pigs under previous anesthesia (after 24 hours from this operation).
The guinea pigs were isolated one by one in observation boxes, recorded their electrocardiogram (the first induction) under quiet circumstances, and heart beat numbers were counted.
All compounds to be examined were administered orally. The recording and measuring were carried out three times before the administration and with the lapse of time until 180 minutes after the administration.
Calculation From The Product Of The Intensity Action With The Durability

[4] = test system: blood pressure in the anesthetized dogs; experiment: Effect on the blood pressure, anesthetized dogs; type: in vivo
Method: as §1
Effect On The Blood Pressure
Using the anesthetized dogs as same as pharmacological experiment 2, and injecting the compounds to be examined into the dogs from the femoral vein, the effect on the blood pressure was examined.

[5] = test system: heart beat numbers of the anesthetized dogs; experiment: Effect on the heart beat numbers, anesthetized dogs; type: in vivo; details: intravenous
Method: as §1
Using anesthetized dogs as same as the pharmacological experiment 2, and injecting the compounds to be examined into the dogs from the femoral vein thereof, the increasing actions to the heart beat numbers were examined.

[6] = Acute toxicity, mice, oral; details: mouse, in vivo, 7 days observation
Source text: There was examined and observed the acute toxicity of the compounds to be examined for 7 days in the case of oral administration to mice.

[7] = oral, male Hartley guinea pigs, 0.1% histamine spray

Structure (SMILES)	ED50 [1, 7]	inhibition at 0.03 mg/kg ([2]; Canis lupus familiaris, 10 min, 30 μg/Kg, intravenous, after 10 minutes, read-out: inhibitory effect on air way resistance 10 minutes after the administration)	minimal effective dose ([2]; Canis lupus familiaris, intravenous, immediately after administration, read-out: dose with distinct inhibitory effect on air way resistance immediately after the administration)	increasing action to the heart beat numbers of the guinea pig ([3]; 0.3 mg/Kg oral)	increasing action to the heart beat numbers of the guinea pig ([3]; 3 mg/Kg oral)	increasing action to the heart beat numbers of the guinea pig ([3]; 30 mg/Kg oral)	depression effect on the blood pressure, in words ([4]; dog, in vivo, iv)	durability effect on the blood pressure, in words ([4]; dog, in vivo, iv)	ED50 ([1]; po)	protecting effect relative to the two controls, salbutamol and isoproterenol ([1]; oral)	durability action of the protecting effect ([1]; oral)	Ratio to isoproterenol (protecting effect) ([1]; oral)	inhibition at 0.003 mg/kg ([2]; Canis lupus familiaris, iv, read-out: inhibitory effect on the increasing reaction of the histamine to the air way resistance)	inhibitory effect on air way resistance, comparison and durability in words ([2]; intravenous, anesthetized dogs, fumarate)	increasing action to the heart beat numbers, in words ([3]; oral, conscious guinea pigs, fumarate)	dosage showing increasing action to the heart beat numbers [5]	increasing action to the heart beat numbers, comparison in words [5]	dosage showing remarkable depression effect upon the blood pressure ([4]; intravenous, anesthetized dogs)	LD50 at 168 h [6]
CC(C)NCC(O)c1ccc(O)c(O)c1 [Isoproterenol, L-isoproterenol hydrochloride, reference compound]	2.9 mg/kg	10%	~0.001 mg/kg	87.3	86.9	147.0	more intense depression effect than that of the compound A of this invention	relatively short in durability effect											
COCc1cc(C(O)CNC(C)Cc2ccc(OC)cc2)ccc1O.O=C(O)/C=C/C(=O)O (stereo not drawn) [Compound A, 1-(4-hydroxy-3-methoxymethylphenyl)-2-(α-methyl-4-methoxyphenethylamino)ethanol fumarate]				36.8	75.0	93.7			0.39 mg/kg	5-7 times	extended obviously longer than those of the two controls	744	> 50%	almost same as those of salbutamol	distinct increasing action to the heart beat numbers with the dosage of 0.3 mg/Kg; also recorded: relatively same as that of Salbutamol and weaker than that of Isoproterenol	more than 3 μg/Kg	weaker than that of Isoproterenol, and rather more intense than that of Salbutamol	more than 3 μg/Kg	1050 mg/kg
COCc1cc(C(O)CNC(C)Cc2ccc(O)cc2)ccc1O.O=C(O)C(=O)O (stereo not drawn) [Compound C, 1-(4-hydroxy-3-methoxymethylphenyl)-2-(α-methyl-4-hydroxyphenethylamino)ethanol oxalate]									0.36 mg/kg	5-7 times	extended obviously longer than those of the two controls	806							1200 mg/kg
CC(C)(C)NCC(O)c1ccc(O)c(CO)c1.Cl (stereo not shown) [Salbutamol, 1-(4-hydroxy-3-hydroxymethylphenyl)-2-(t-butylamino)-ethanol hydrochloride, reference compound]	2.25 mg/kg						rather weaker tendency												
COCc1cc(C(O)CNC(C)Cc2ccc3c(c2)OCO3)ccc1O (stereo not drawn) [Compound B, 1-(4-hydroxy-3-methoxymethylphenyl)-2-(α-methyl-3,4-methylenedioxyphenethylamine)ethanol oxalate]	0.56 mg/kg									5-7 times	extended obviously longer than those of the two controls	518							1200 mg/kg
